One experiment concerns fetal islet β cells. Briefly: SNP-induced apoptosis in cultured fetal islets (TUNEL, confocal microscopy). Format: cell-based, Wistar rats. To be noted: SNP 100 μmol/l. On the procedure: Animals and Diets. Adult virgin female Wistar rats were caged overnight with males and copulation was verified the next morning. Animals were maintained at 25° C. with a 10 h-14 h dark-light cycle. Pregnant rats were divided into two groups and fed one of the following isocaloric diets: either a control diet (C) containing 20% protein or a low protein diet (LP) containing 8% protein. The composition of the diet was as described previously by Snoeck et al. 1990 (Biol. Neonate 57, 107-118). The diets were purchased from Hope Farms (Woerden, Holland). Animals in both the groups had free access to water at all times. At 21.5 days of gestation, females were sacrificed by decapitation and fetuses removed.
Islet culture and treatment. Fetal islets were isolated as described by Mourmeaux et al. 1985 (Molecular and Cellular Endocrinology 39:237-246). Islets were cultured in 35 mm Petri-dishes (Falcon plastics, Los Angeles, Calif.) in RPMI 1640 medium (Gibco, Grand Island, N.Y., USA) with 10% Fetal Bovine Serum and antibiotics (penicillin 200 U/ml, streptomycin 0.2 mg/ml). Petri dishes were incubated at 37° C. with 5% CO2 in air. The culture medium was changed daily after the second day. On the 5th day of culture, islets were rinsed twice with serum free DME/F12 medium (1:1, v/v, Gibco, Paisley, Scotland) and subsequently incubated for 42 hours in this medium. […]
TUNEL method for evaluating apoptosis. Apoptosis was evaluated by the TUNEL method described herein, and visualized with confocal microscopy. Cultured islets were fixed in methanol and stored at −20° C. until analysis. The tissue was then washed with phosphate buffered saline (PBS) for 3 min, and a terminal deoxynucleotidyl transferase (TdT) reaction buffer (50 μl) was added. The 50 μl of TdT solution was prepared using 10 μl of 5× concentrated buffer solution (1 mol/l potassium cacodylate; 125 mmol/l Tris-HCl, pH 6.6; 1.26 mg bovine serum albumin). Cobalt chloride (5 μl of 25 mmol/l), 0.5 μl (12.5 units) of TdT (both from Boehringer Mannheim, Germany), and 0.25 nmoles of BODIPY-FL-X-14-dUTP (Molecular Probes, Eugene, Oreg. USA) were added, along with distilled water, up to 50 μl. Islets were incubated in Petri dishes with the TdT reaction buffer for 60 min at 37° C., then rinsed twice with 15 mmol/l EDTA (pH 8.0) in PBS and once with 0.1% Triton X-100 in PBS. Then, 2 ml of PBS containing 2.5 μg/ml of propidium iodide (Molecular Probes, Eugene, Oreg. USA) was added to the dishes for 5 min. Finally, islet cells were washed with 15 mmol/l EDTA (pH 8.0). Islet cells were then double-labelled for apoptotic nuclei, showing the BODIPY-FL-dUTP label in […] and total nuclei with propidium iodide in red.
Confocal microscopy. Staining probes were visualised through a confocal laser scanning microscopy system (MRC-1024 UV; BIO-RAD, UK) equipped with Argon ion and Krypton/Argon ion lasers. BODIPY-FL was excited at 503 nm, ethidium bromide at 510 nm, propidium iodide at 536 nm and Hoechst 33342 at 346 nm. The emissions were recorded respectively at 522/32 nm, 605/32 nm and 455/30 nm. Four to six optical sections were collected at every 15 μm through the islet. The number of BODIPY-FL-positive or ethidium bromide-positive nuclei were reported and expressed as a percentage of the total number of nuclei.
Animals, diets, and fetal islet isolation procedures were conducted as described in Example 1.

The conditions of experiment [1]: SIN-1. The procedure:
Chemiluminescence measurements. Luminol (5-amino-2,3-dihydro-1-4-phtalazinedione) at 400 μmol/l (Sigma Chemical Co.), taurine (0.3 or 3 mmol/l), methionine (0.1 or 1 mmol/l) and β-alanine (0.3 or 3 mmol/l) stock solutions were prepared in PBS. Sydnonimine (SIN-1), also known as 3-morpholinosydnonimine, a source of peroxynitrite, was purchased from Sigma Chemical Co. SIN-1 was prepared as 100 μmol in 1 mol/l NaOH. A reaction was initiated by simultaneous injection of luminol and SIN-1 into wells containing PBS either alone or with supplemental amino acid levels as noted above. Chemiluminescence emitted by luminol in the presence of peroxynitrite was measured every 30 seconds over 20 minutes in a chemifluorophotometer (MicroLumat LB96P, EG&G BERTHOLD), and was quantified as light intensity (10^8 RLU).
Nitric oxide is a reactive free radical which leads to peroxynitrite formation, another reactive free radical, by interaction with superoxide (NO+OO^−→ONOO^−). […] Luminol-derived chemiluminescence induced by peroxynitrite produced by the decomposition of sydnonimine (SIN-1) was evaluated to investigate the possibility that taurine quenched the peroxynitrite formed from NO.

Another experiment deals with fetal islet cells. Briefly: IL1β-induced apoptosis in cultured fetal islets (TUNEL). The format is cell-based, Wistar rats. The conditions noted are these: 50 U/ml IL 1β for 24 hours; C and LP groups. The procedure:
The effect of in vitro taurine on the effect of IL1β-induced apoptosis was assessed. Fetal islets were isolated as described above in Example 1. On the 5th day of culture, islets were rinsed twice with serum free DME/F12 medium (1:1, v/v, Gibco, Paisley, Scotland) and were incubated in this medium supplemented with taurine at 0.3 or 3 mmol/l for 48 hours. For the final 24 hours of this incubation, IL1β (Endogen, Woburn, Mass.) was added to the incubation medium at a level of 50 U/ml. Apoptosis was quantified by confocal microscopy using TUNEL method, as outlined in Example 1.

Where two headings read alike, the source gives them in different places.

On to `CC(=O)N(O)CCCCCNC(=O)CCC(=O)N(O)CCCCCNC(=O)CCC(=O)N(O)CCCCCN` [DFO, desferioxamine, reference compound], for which the “reduction of the cell death induced by SNP” value with fetal islet β cells (LP and C islets, data not shown) was “about 30%”. As for `CSCC[C@H](N)C(=O)O` [methionine, L-Methionine], the apoptosis rate result with fetal islet β cells (0.1 mmol/l methionine, regardless of diet) is listed as “significantly decreased”; with fetal islet β cells (1.0 mmol/l methionine vs physiological concentration), “did not provide additional protection”. The “luminol chemiluminescence (peroxynitrite quenching)” value in experiment [1] (methionine 0.1 or 1 mmol/l) is recorded as “No change”. As to `NCCC(=O)O` [β-alanine, 3-aminopropanoic acid, reference compound], the “rate of apoptosis / protection against damage induced by NO” value with fetal islet β cells (β-alanine 0.3 or 3 mmol/l) was “no protective effect”. For the same compound, in experiment [1] (β-alanine 0.3 or 3 mmol/l), the “luminol chemiluminescence (peroxynitrite quenching)” value is listed as “no change”. As to “IL 1β: macrophage-derived proinflammatory cytokine used to induce islet cell apoptosis”, the “apoptosis level of fetal islets” value in the experiment on fetal islet cells was “increased the apoptosis level”.

The record behind these values is US20030180345A1, “Compositions and methods for inhibiting islet dysfunction and autoimmune disorders” (priority 2000, published 2003).
